# According to patent US20210255193A1, “LYSINE REACTIVE PROBES AND USES THEREOF” (The Scripps Research Institute, priority 2017, published 2021):
# How the values were obtained:
# Assay in all cases: competitive isoTOP-ABPP
# Type in all cases: binding
# [1] = target: T1, EEF2 Elongation factor 2 (Homo sapiens, UniProt P13639); settings: for isoTOP-ABPP ratio (R) at liganded lysine P13639_K235 / isoTOP-ABPP ratio (R) at liganded lysine P13639_K318: sol, 231; for isoTOP-ABPP ratio, lysine P13639_K235 / isoTOP-ABPP ratio, lysine P13639_K318: 50 uM_231_sol_in vitro
# T1 construct: isoTOP-ABPP experiments performed in cell lysates (in vitro); endogenous in cells; host or cells: soluble proteome of human cancer cell lines (MDA-MB-231; Ramos and Jurkat also prepared)
# Method in brief: (§1)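 Cell lysate treated in vitro with fragments (50 μM activated esters, 100 μM guanidinylating agents) or DMSO, labelled 1 h at ambient temperature with 0.1 mM STP-alkyne, CuAAC-tagged with light/heavy TEV tags, analysed by MS. R = DMSO/compound MS1 peak-area ratio; lysines with R≥4 called liganded.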
# [2] = target: T2, ENOPH1 Enolase-phosphatase E1 (Homo sapiens, UniProt Q9UHY7); settings: for isoTOP-ABPP ratio (R) at liganded lysine Q9UHY7_K111 / isoTOP-ABPP reactivity ratio at lysine Q9UHY7_K111 / R value (DMSO/fragment) for probe 1 labeling: 50 uM, in vitro; for isoTOP-ABPP ratio (R) at liganded lysine Q9UHY7_K111: sol, 231; for isoTOP-ABPP reactivity ratio at lysine Q9UHY7_K111 / R value (DMSO/fragment) for probe 1 labeling: 231 sol; for R value (DMSO/fragment) for probe 1 labeling: Q9UHY7_K111; for isoTOP-ABPP ratio, lysine Q9UHY7_K111: 50 uM_231_sol_in vitro
# T2 construct: endogenous in cells; host or cells: MDA-MB-231 (soluble fraction of lysate)
# T2 sequence (Q9UHY7 whole entry, the tested form may be a part): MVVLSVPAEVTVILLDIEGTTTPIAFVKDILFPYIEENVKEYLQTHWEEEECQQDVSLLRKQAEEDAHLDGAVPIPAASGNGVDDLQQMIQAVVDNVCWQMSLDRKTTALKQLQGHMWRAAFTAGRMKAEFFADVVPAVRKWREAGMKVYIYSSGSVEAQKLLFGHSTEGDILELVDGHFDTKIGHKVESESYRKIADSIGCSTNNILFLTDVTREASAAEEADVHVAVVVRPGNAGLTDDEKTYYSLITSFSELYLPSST
# Method in brief: as §1
# [3] = target: T3, CNOT4 CCR4-NOT transcription complex subunit 4 (Homo sapiens, UniProt O95628); settings: for isoTOP-ABPP ratio (R) at liganded lysine O95628_K134 / isoTOP-ABPP reactivity ratio at lysine O95628_K134 / R value (DMSO/fragment) for probe 1 labeling: 50 uM, in vitro; for isoTOP-ABPP ratio (R) at liganded lysine O95628_K134: sol, 231; for isoTOP-ABPP reactivity ratio at lysine O95628_K134 / R value (DMSO/fragment) for probe 1 labeling: 231 sol; for R value (DMSO/fragment) for probe 1 labeling: O95628_K134; for isoTOP-ABPP ratio, lysine O95628_K134: 50 uM_231_sol_in vitro
# T3 construct: isoTOP-ABPP experiments performed in cell lysates (in vitro); endogenous in cells; host or cells: MDA-MB-231 soluble lysate
# T3 sequence (O95628 1-575): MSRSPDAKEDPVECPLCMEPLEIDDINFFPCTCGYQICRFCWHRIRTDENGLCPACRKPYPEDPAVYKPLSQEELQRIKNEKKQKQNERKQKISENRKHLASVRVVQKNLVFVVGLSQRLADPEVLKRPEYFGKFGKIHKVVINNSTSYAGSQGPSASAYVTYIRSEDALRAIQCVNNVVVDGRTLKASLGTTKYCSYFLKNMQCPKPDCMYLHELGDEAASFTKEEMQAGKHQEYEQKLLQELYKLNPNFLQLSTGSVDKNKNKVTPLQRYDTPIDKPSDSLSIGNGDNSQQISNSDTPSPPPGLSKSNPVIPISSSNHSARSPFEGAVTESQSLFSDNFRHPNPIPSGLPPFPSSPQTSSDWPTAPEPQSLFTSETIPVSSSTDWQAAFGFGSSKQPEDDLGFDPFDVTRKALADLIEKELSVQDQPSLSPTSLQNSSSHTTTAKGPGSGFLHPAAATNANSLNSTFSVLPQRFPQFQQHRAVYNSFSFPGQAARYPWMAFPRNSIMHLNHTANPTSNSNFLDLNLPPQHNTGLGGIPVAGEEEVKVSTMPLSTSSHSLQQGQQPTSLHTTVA
# Method in brief: as §1
# [4] = P13639_K235, 50 uM, 231 sol, in vitro
# [5] = P13639_K318, 50 uM, 231 sol, in vitro
compound,measurement,setting,value
"O=C(CCc1coc2cc(F)ccc2c1=O)Oc1ccc([N+](=O)[O-])cc1[N+](=O)[O-] [fragment 36, 2,4-Dinitrophenyl 3-(7-fluoro-4-oxo-4H-chromen-3-yl)propanoate]",isoTOP-ABPP ratio (R) at liganded lysine P13639_K235,"[1]; 50 uM, in vitro",1.0
same,isoTOP-ABPP ratio (R) at liganded lysine P13639_K318,"[1]; 50 uM, in vitro",1.0
same,isoTOP-ABPP ratio (R) at liganded lysine Q9UHY7_K111,[2],0.9
"O=C(Oc1ccc([N+](=O)[O-])cc1[N+](=O)[O-])C(c1ccccc1)(c1ccccc1)c1ccccc1 [fragment 42, 2,4-Dinitrophenyl 2,2,2-triphenylacetate]",isoTOP-ABPP ratio (R) at liganded lysine O95628_K134,[3],1.0
same,isoTOP-ABPP ratio (R) at liganded lysine P13639_K235,"[1]; 50 uM, in vitro",1.0
same,isoTOP-ABPP ratio (R) at liganded lysine P13639_K318,"[1]; 50 uM, in vitro",1.0
"O=C(CCc1coc2cc(F)ccc2c1=O)Oc1c(F)c(F)c(F)c(F)c1F [fragment 26, Pentafluorophenyl 3-(7-fluoro-4-oxo-4H-chromen-3-yl)propanoate]",isoTOP-ABPP reactivity ratio at lysine O95628_K134,[3],1.1
same,isoTOP-ABPP reactivity ratio at lysine P13639_K235,"[1]; 50 uM, 231 sol, in vitro",1.3
same,isoTOP-ABPP reactivity ratio at lysine P13639_K318,"[1]; 50 uM, 231 sol, in vitro",1.1
same,isoTOP-ABPP reactivity ratio at lysine Q9UHY7_K111,[2],1.3
"O=C(Oc1ccc([N+](=O)[O-])cc1[N+](=O)[O-])c1ccccc1Nc1cccc(C(F)(F)F)c1 [fragment 40, 2,4-Dinitrophenyl 2-((3-(trifluoromethyl)phenyl)amino)benzoate]",isoTOP-ABPP ratio (R) at liganded lysine O95628_K134,[3],1.1
same,isoTOP-ABPP ratio (R) at liganded lysine P13639_K235,"[1]; 50 uM, in vitro",0.9
same,isoTOP-ABPP ratio (R) at liganded lysine P13639_K318,"[1]; 50 uM, in vitro",0.9
same,isoTOP-ABPP ratio (R) at liganded lysine Q9UHY7_K111,[2],0.7
"O=C(Oc1ccc([N+](=O)[O-])cc1[N+](=O)[O-])C1CCN(C(=O)OCc2ccccc2)CC1 [fragment 34, 1-Benzyl 4-(2,4-dinitrophenyl) piperidine-1,4-dicarboxylate]",isoTOP-ABPP ratio (R) at liganded lysine O95628_K134,[3],1.1
same,isoTOP-ABPP ratio (R) at liganded lysine P13639_K235,"[1]; 50 uM, in vitro",1.0
same,isoTOP-ABPP ratio (R) at liganded lysine Q9UHY7_K111,[2],0.9
"Cn1cc(CC(=O)Oc2c(F)c(F)c(F)c(F)c2F)c2ccccc21 [fragment 22, Pentafluorophenyl 2-(1-methyl-1H-indol-3-yl)acetate]",R value (DMSO/fragment) for probe 1 labeling,[3],1.4
same,R value (DMSO/fragment) for probe 1 labeling,[1]; [4],2.9
same,R value (DMSO/fragment) for probe 1 labeling,[1]; [5],5.6
same,R value (DMSO/fragment) for probe 1 labeling,[2],1.4
"O=C(Oc1c(F)c(F)c(C(F)(F)F)c(F)c1F)c1cc(C(F)(F)F)cc(C(F)(F)F)c1 [fragment 47, 2,3,5,6-Tetrafluoro-4-(trifluoromethyl)phenyl 3,5-bis(trifluoromethyl)benzoate]","isoTOP-ABPP ratio, lysine O95628_K134",[3],1.5
same,"isoTOP-ABPP ratio, lysine P13639_K235",[1],1.1
same,"isoTOP-ABPP ratio, lysine P13639_K318",[1],1.1
same,"isoTOP-ABPP ratio, lysine Q9UHY7_K111",[2],7.8
"O=C(CC12CC3CC(CC(C3)C1)C2)Oc1ccc([N+](=O)[O-])cc1[N+](=O)[O-] [fragment 38, 2,4-Dinitrophenyl 2-(adamantan-1-yl)acetate]",isoTOP-ABPP ratio (R) at liganded lysine O95628_K134,[3],1.2
same,isoTOP-ABPP ratio (R) at liganded lysine P13639_K235,"[1]; 50 uM, in vitro",0.9
same,isoTOP-ABPP ratio (R) at liganded lysine P13639_K318,"[1]; 50 uM, in vitro",0.9
same,isoTOP-ABPP ratio (R) at liganded lysine Q9UHY7_K111,[2],1.1
"O=C(ON1C(=O)CCC1=O)c1cc(C(F)(F)F)cc(C(F)(F)F)c1 [fragment 46, 3,5-Bis(trifluoromethyl)benzoic acid NHS ester]","isoTOP-ABPP ratio, lysine O95628_K134",[3],5.2
same,"isoTOP-ABPP ratio, lysine P13639_K235",[1],1.3
same,"isoTOP-ABPP ratio, lysine P13639_K318",[1],1.1
same,"isoTOP-ABPP ratio, lysine Q9UHY7_K111",[2],1.1
"NC(=O)c1cc(C(F)(F)F)cc(C(F)(F)F)c1 [fragment 51, reference compound]","isoTOP-ABPP ratio, lysine O95628_K134",[3],0.9
same,"isoTOP-ABPP ratio, lysine P13639_K235",[1],0.9
same,"isoTOP-ABPP ratio, lysine P13639_K318",[1],0.9
same,"isoTOP-ABPP ratio, lysine Q9UHY7_K111",[2],0.9
"O=C(CN1C(=O)c2ccccc2C1=O)Oc1c(F)c(F)c(F)c(F)c1F [fragment 27, Pentafluorophenyl 2-(1,3-dioxoisoindolin-2-yl)acetate]",isoTOP-ABPP reactivity ratio at lysine O95628_K134,[3],1.2
same,isoTOP-ABPP reactivity ratio at lysine P13639_K235,"[1]; 50 uM, 231 sol, in vitro",5.7
same,isoTOP-ABPP reactivity ratio at lysine Q9UHY7_K111,[2],1.5
"O=C(CCc1cn(-c2ccccc2)nc1-c1ccccc1)Oc1c(F)c(F)c(F)c(F)c1F [fragment 19, Pentafluorophenyl 3-(1,3-diphenyl-1H-pyrazol-4-yl)propanoate]",R value (DMSO/fragment) for probe 1 labeling,[3],1.1
same,R value (DMSO/fragment) for probe 1 labeling,[1]; [4],1.2
same,R value (DMSO/fragment) for probe 1 labeling,[1]; [5],1.1
same,R value (DMSO/fragment) for probe 1 labeling,[2],1.0
